The compounds below were run against Protein kinase C gamma type (Rattus norvegicus, UniProt P63319) (assay: Inhibition of [3H]phorbol-12,13-dibutyrate (PDBu) binding to rat brain protein kinase C gamma regulatory domain).

SMILES | IC50 [µM]
CC(C)[C@H]1C(=O)N[C@H](CO)Cc2c[nH]c3cccc(c23)N1C | 2.75
Cc1ccc2[nH]cc3c2c1N(C)[C@@H](C(C)C)C(=O)N[C@H](CO)C3 | > 100

Now from value to compound:

IC50 [µM] | SMILES
1.26 | CC(C)[C@H]1C(=O)N[C@H](CO)Cc2c[nH]c3ccc4c(c23)N1[C@H](C)C4
24 | CC(C)[C@H]1C(=O)N[C@H](CO)Cc2c[nH]c3ccc4c(c23)N1[C@@H](C)C4
10 | Cc1cc2ccc3[nH]cc4c3c2n1[C@@H](C(C)C)C(=O)N[C@H](CO)C4

— BindingDB's records for doi:10.7270/Q2GM89G6 (n/a, 1995)
